In patent publication US20230292776A1, “GAS PHASE TREATMENT OF PRODUCE” (priority 2022, published 2023):

Experiments:
[1] = system: mold; assay: AITC vapor against mold growth on produce in an airtight bin (general description); assay type: in vivo
Experimental: The plurality of produce items is contacted with the antimicrobial agent for a length of time in a range of 1 minute to 100 hours (e.g., 10 minutes to 1 hour). The length of time is dependent on a variety of factors, such as type of produce, target pathogen, and the degree to which the enclosure is sealed. Examples include exposure times between 15 minutes and 96 hours for allyl isothiocyanate (AITC) in an airtight bin. […] Lower antimicrobial agent concentrations with longer exposure times or higher antimicrobial concentrations with shorter exposure times can also be used. For example, the plurality of produce items is contacted with the antimicrobial agent for a length of time in a range of 15 minute to 72 hours.
A concentration of the antimicrobial agent in the headspace of the enclosure is typically in a range of about 20 parts per million by volume (ppmv) to about 5000 ppmv (e.g., about 550 ppmv to about 4800 ppmv, or about 25 ppmv to about 1250 ppmv). Depending on type of produce and exposure time in the enclosure, antimicrobial agent concentrations greater than about 2200 ppmv can sometimes damage the produce. […] In some embodiments, the antimicrobial agent is provided in a concentration to the enclosure in a headspace at least about 1200 ppmv, at least about 1250 ppmv, or about 1250 ppmv to about 5000 ppmv, or about 1250 ppmv to about 4900 ppmv.

[2] = system: Penicillium digitatum (Pd); assay: Antifungal activity of vapor against Penicillium digitatum (Pd) in wounded, infected mandarins; assay type: in vivo; conditions: for effect on Pd mold: Example 5, assessed after 6 days; for infected mandarins: Example 6
[3] = system: avocados; design: species or system avocado; conditions: in vivo
Experimental: Example 11. The ripening characteristics of avocados exposed to AITC vapor was analyzed. Treatment groups consisted of avocados that were: exposed to the vapor of 125 μL of AITC in a Petri dish for 30 min and 18 hours; exposed to the vapor of 500 μL of AITC for 30 minutes and 18 hours; untreated and kept 18 hours in a bin; and treated with a coating agent. Two sets of the preceding test groups were studied. One set was treated when cold along with coated fruit (i.e., fruit treated with a coating agent (95 wt % glyceryl monostearate and 5 wt % sodium stearate) and another set was treated when warm (one day out of cold storage). Daily measurements were made of respiration and firmness (using a durometer). At the start of the test, the avocados were placed in cold storage. After one day, the cold treated avocados were treated with AITC directly after removal from cold storage. The coated group was treated at this time. The warm treated avocados were allowed to warm to room temperature. On the second day, measurements were begun on the cold treated avocados and AITC treatments began on the warm treated samples. On the third day, measurements began on the warm treated groups. […]
Example 23: The ripening characteristics of avocados exposed to AITC vapor, a coating agent (95 wt % glyceryl monostearate and 5 wt % sodium stearate), and AITC plus the coating agent was analyzed. […]

In the case of `C=CCN=C=S` [AITC, allyl isothiocyanate], the “mold growth on the produce” value ([1]; AITC concentration of 1000 ppm, exposure time of 15 minutes, airtight bin) is reported as “slowed mold growth on the produce”, the “efficacy against mold on the produce” value ([1]; AITC concentration of 1000 ppm, exposure time of 30 min or longer) is reported as “good efficacy” and the “effect on mold growth” value ([1]; AITC concentrations in a range of 550 ppmv to 4800 ppmv) is reported as “some inhibitory effect on mold growth”. The “effect on mold growth” value ([1]; AITC concentrations over 1000 ppmv) was “tended to be completely inhibitory”, the “inhibition of fungal growth (Pd)” value ([2]; Example 2, mandarins, 72 hours vapor of 3 mL) was “approximately 100%” and the Pd mold growth ([2]; Example 4, doses of 125 μL, 250 μL & 500 μL, airtight container, 18 hours, 6 days) was “substantially prevented the growth mold”. The “effect on Pd mold” value ([2]; 125 μL (730 ppm), 30 min exposure) was “greatly reduced severity of Pd mold infection”, the “effect on Pd mold” value ([2]; 125 μL, 1 hour exposure) was “greatly reduced severity and incidence of Pd mold” and the infected mandarins ([2]; 125 μL, 30 minutes, treated after 24 hours) was 8.3%. For the same compound, the infected mandarins ([2]; 125 μL, 30 minutes, treated after 48 hours) was 25%, the infected mandarins ([2]; 125 μL, 30 minutes, treated after 72 hours) was 16.7% and the infected mandarins ([2]; 125 μL, 30 minutes, treated after 96 hours) was 81.6%. For the same compound, the infected mandarins ([2]; 125 μL, 30 minutes, treated immediately after infection (0 hours)) was 58.3%, the “effect on Pd infection at lower dose” value ([2]; Example 19, 62.5 μL (50% of the minimum inhibitory concentration), 30 minutes) was “tends to reduce the severity of infection, but not eliminate the incidence of infection” and the “effect on avocado peel and firmness” value [3] was “causes darkening and thickening of the avocado peel and a prolonged feeling a firmness”.
